# According to patent US7435837B2, “Dihydrobenzofuranyl alkanamine derivatives and methods for using same” (Wyeth, priority 2003, dated 2008):
# Structures can show the parent of a compound that is named as a salt.
row,SMILES,melting point
1,"Cc1c(Cl)cc(C(C)C)c2c1CC(CN)O2 (racemic) (as salt: hydrochloride) [Example 21, (±)-1-(5-chloro-7-isopropyl-4-methyl-2,3-dihydro-1-benzofuran-2-yl)methanamine]",> 225 °C (dec.)
2,"Cc1ccccc1-c1cccc2c1CC(CN)O2 (single isomer, unassigned; (-)) (as salt: hydrobromid) [Example 6, (−)-1-[4-(2-methylphenyl)-2,3-dihydro-1-benzofuran-2-yl]methanamine]",231 to 233 °C
3,"NCC1Cc2cccc(-c3ccccc3C(F)(F)F)c2O1 (single isomer, unassigned; (+)) (as salt: hydrochloride) [Example 55, (+)-1-{7-[2-(trifluoromethyl)phenyl]-2,3-dihydro-1-benzofuran-2-yl}methanamine]",97 to 100 °C
4,"NCC1Cc2c(cccc2-c2ccccc2C(F)(F)F)O1 (single isomer, unassigned; (-)) (as salt: hydrochloride) [Example 123, (−)-1-{4-[2-(trifluoromethyl)phenyl]-2,3-dihydro-1-benzofuran-2-yl}methanamine]",203 to 206 °C
5,"Cc1ccccc1-c1cc(Cl)cc2c1OC(CN)C2 (single isomer, unassigned; (+)) (as salt: hydrobromid) [Example 96, (+)-1-[5-chloro-7-(2-methylphenyl)-2,3-dihydro-1-benzofuran-2-yl]methanamine]",170 to 172 °C
6,"Cc1ccccc1-c1cc(C#N)cc2c1OC(CN)C2 (racemic) (as salt: hydrochloride) [Example 311, (±)-2-(aminomethyl)-7-(2-methylphenyl)-2,3-dihydro-1-benzofuran-5-carbonitrile]",127 to 129 °C
7,"NCC1Cc2cc(Cl)cc(-c3ccsc3)c2O1 (racemic) (as salt: hydrochloride) [Example 90, (±)-(5-chloro-7-thien-3-yl-2,3-dihydro-1-benzofuran-2-yl)methylamine]",230 °C (dec.)
8,"NCC1Cc2cc(F)cc(-c3ccccc3C(F)(F)F)c2O1 (racemic) (as salt: hydrochloride) [Example 108, (±)-1-{5-fluoro-7-[2-(trifluoromethyl)phenyl]-2,3-dihydro-1-benzofuran-2-yl}methanamine]",196 to 198 °C (dec.)
9,"Cc1ccccc1-c1cc(Cl)cc2c1OC(CN)C2 (racemic) (as salt: salt) [Example 95, (±)-1-[5-chloro-7-(2-methylphenyl)-2,3-dihydro-1-benzofuran-2-yl]methanamine]",160 to 163 °C
10,"Cc1ccccc1-c1ccc(F)c2c1OC(CN)C2 (racemic) (as salt: hydrochloride) [Example 99, (±)-1-[4-fluoro-7-(2-methylphenyl)-2,3-dihydro-1-benzofuran-2-yl]methanamine]",228 to 231 °C
11,"COc1cc2c(c(C(C)(C)C)c1)OC(CN)C2 (single isomer, unassigned; (-)) (as salt: hydrochloride) [Example 115, (−)-1-(7-tert-butyl-5-methoxy-2,3-dihydro-1-benzofuran-2-yl)methanamine]",157 to 159 °C
12,"NCC1Cc2cccc(C3CCCC3)c2O1 (single isomer, unassigned; (-)) (as salt: hydrobromid) [Example 9, (−)-(7-cyclopentyl-2,3-dihydro-1-benzofuran-2-yl)methylamine]",208 to 211 °C
13,"NCC1Cc2c(cccc2-c2ccccc2C(F)(F)F)O1 (racemic) (as salt: hydrochloride) [Example 122, (±)-1-{4-[2-(trifluoromethyl)phenyl]-2,3-dihydro-1-benzofuran-2-yl}methanamine]",213 to 215 °C
14,"NCC1Cc2cccc(-c3c(Cl)cccc3Cl)c2O1 (racemic) (as salt: hydrochloride) [Example 140, (±)-1-[7-(2,6-dichlorophenyl)-2,3-dihydro-1-benzofuran-2-yl]methanamine]",206 to 208 °C
15,"Cc1ccc(Cl)cc1-c1cc(F)cc2c1O[C@@H](CN)C2 (as salt: hydrochloride) [Example 548, {[(2R)-7-(5-chloro-2-methylphenyl)-5-fluoro-2,3-dihydro-1-benzofuran-2-yl]methyl}amine]",148 to 150 °C

# Further lines, results first:
row,melting point,SMILES
1,185 to 188 °C,"COc1ccc(-c2cccc3c2OC(CN)C3)cc1 (single isomer, unassigned; (-)) (as salt: hydrobromid) [Example 81, (−)-1-[7-(4-methoxyphenyl)-2,3-dihydro-1-benzofuran-2-yl]methanamine]"
2,> 250 °C,"Cc1cccc(C)c1-c1cccc2c1OC(CN)C2 (racemic) (as salt: hydrochloride) [Example 56, (±)-1-[7-(2,6-dimethylphenyl)-2,3-dihydro-1-benzofuran-2-yl]methanamine]"
3,194 to 196 °C,"Cc1cccc(-c2cccc3c2OC(CN)C3)c1 (single isomer, unassigned; (-)) (as salt: hydrochloride) [Example 43, (−)-1-[7-(3-methylphenyl)-2,3-dihydro-1-benzofuran-2-yl]methanamine]"
4,227 to 228 °C,"NCC1Cc2cccc(-c3ccccc3F)c2O1 (single isomer, unassigned; (+)) (as salt: hydrochloride) [Example 51, (+)-1-[7-(2-fluorophenyl)-2,3-dihydro-1-benzofuran-2-yl]methanamine]"
5,> 210 °C (dec.),"Cc1cccc(-c2cccc3c2OC(CN)C3)c1 (racemic) (as salt: hydrochloride) [Example 41, (±)-1-[7-(3-methylphenyl)-2,3-dihydro-1-benzofuran-2-yl]methanamine]"
6,> 225 °C,"Cc1cccc(-c2cccc3c2OC(CN)C3)c1C (racemic) (as salt: hydrochloride) [Example 154, (±)-1-[7-(2,3-dimethylphenyl)-2,3-dihydro-1-benzofuran-2-yl]methanamine]"
7,202 to 204 °C,"CC(C)c1ccccc1-c1cccc2c1OC(CN)C2 (racemic) (as salt: hydrochloride) [Example 61, (±)-[7-(2-isopropylphenyl)-2,3-dihydro-1-benzofuran-2-yl]methylamine]"
8,229 to 231 °C,"NCC1Cc2cccc(-c3ccc(Cl)cc3)c2O1 (single isomer, unassigned; (+)) (as salt: hydrobromid) [Example 77, (+)-1-[7-(4-chlorophenyl)-2,3-dihydro-1-benzofuran-2-yl]methanamine]"
9,207 to 208 °C,"NCC1Cc2cccc(-c3ccc(F)cc3)c2O1 (single isomer, unassigned; (+)) (as salt: hydrobromid) [Example 74, (+)-1-[7-(4-fluorophenyl)-2,3-dihydro-1-benzofuran-2-yl]methanamine]"
10,> 250 °C,"Cc1ccc(-c2cccc3c2OC(CN)C3)cc1 (single isomer, unassigned; (+)) (as salt: hydrobromid) [Example 71, (+)-1-[7-(4-methylphenyl)-2,3-dihydro-1-benzofuran-2-yl]methanamine]"
11,200 to 202 °C,"NCC1Cc2cccc(-c3cccc(F)c3)c2O1 (racemic) (as salt: hydrochloride) [Example 64, (±)-1-[7-(3-fluorophenyl)-2,3-dihydro-1-benzofuran-2-yl]methanamine]"
12,> 250 °C,"COc1ccccc1-c1cccc2c1OC(CN)C2 (racemic) (as salt: hydrochloride) [Example 59, (±)-1-[7-(2-methoxyphenyl)-2,3-dihydro-1-benzofuran-2-yl]methanamine]"
13,186 to 188 °C,"NCC1Cc2cccc(-c3cccc(F)c3)c2O1 (single isomer, unassigned; (+)) (as salt: hydrochloride) [Example 131, (+)-1-[7-(3-fluorophenyl)-2,3-dihydro-1-benzofuran-2-yl]methanamine]"
14,> 200 °C,"NCC1Cc2cccc(-c3ccsc3)c2O1 (racemic) (as salt: hydrochloride) [Example 44, (±)-1-(7-thien-3-yl-2,3-dihydro-1-benzofuran-2-yl)methanamine]"
